Reference: patent US9481709B2, “Boropeptide inhibitors of enteropeptidase and their uses in treatment of obesity, overweight and/or diseases associated with an abnormal fat metabolism” (OBE THERAPY BIOTECHNOLOGY, priority 2007, dated 2016)

Columns and labels:
Kallikrein = Kallikrein (Homo sapiens, UniProt P03952); assay: Kallikrein
Excerpt: Table printed on a drawing sheet, Fig. 5
Head of the field: Kallikrein
The patent's description of the figure: FIG. 5 is a Table showing the IC 50 (in nM) of enteropeptidase, various serine proteases and other enzyme families, in the presence of compounds OBE 1999, OBE 2000, OBE 2001 or OBE 2002.
First copying reader's note: Each column is one compound; each row gives its IC50 against the named enzyme.
Where the first naming reader finds the target: head: Kallikrein

[1] = Effect on triglyceride absorption after oral gavage with clinoleic 20% + cholesterol; type: in vivo, mice; details: for triglycerides, area under the curve: 0-360 min
Experimental: 2. Effect of OBE2001 on Triglyceride Absorption The scope of this second in vivo experiment was to analyse the effects of the OBE2001 compound on triglycerides absorption. To that purpose, mice were injected with OBE2001, before and/or after gavage with a solution enriched with cholesterol and free fatty acids (clinoleic at 20%). In this study, 7 week old Swiss CD1 male mice were weighed and randomized for body weight; 3 groups of 5 mice were then constituted of: • Group 1 (solvant): control group. Vehicle (H2O+2% DMSO) at t-5 min+solution A (clinoleic 20%+cholesterol) at t0. • Group 2 (OBE 25+25): OBE2001 25 mg/kg (before and after gavage). OBE2001 25 mg/kg (solution B) at t-5 min+OBE2001 25 mg/kg in solution A (solution C) at t0. • Group 3 (OBE 25): OBE2001 25 mg/kg […]. Vehicle (H2O+2% DMSO) at t-5 min+OBE2001 25 mg/kg in solution A (solution C) at t0. 30 minutes before treatment (with solution A, B or C) blood was collected by retro orbital puncture after a slight anaesthesia (Isoflurane), to determine basal (t0) triglycerides levels. All solutions were then administered by oral gavage at t-5 (vehicle or solution B) or t0 (solution A or C). After administration of the solution A or C (containing fatty acids+cholesterol), blood was collected again by retro orbital puncture after a slight anaesthesia (Isoflurane) at time 60, 120, 180, 300 and 360 minutes for measurement of triglycerides levels. At time 360 minutes, mice were sacrificed.

[2] = Effect on absorption of 14C-proteins after oral administration; type: in vivo; details: for Cmax of 14C-protein radioactivity in plasma: control 0.9%±0.27; for AUC mean of 14C-protein radioactivity in plasma: control 2.214±0.1875; for plateau concentration of 14C-protein radioactivity in plasma: 1 h to 4 h post-administration, control 0.5%
Experimental: 3. Effect of OBE2001 on Protein Absorption
This third in vivo experiment was designed to obtain information on the absorption of ^14C-proteins in absence or in presence of OBE2001 at two different doses (5 mg/Kg or 50 mg/Kg) after an oral administration to male Swiss mice.
15 male Swiss (CD-1) mice, 5 weeks-old and having a mean body weight of 0.021±0.002 kg were divided in 3 groups: • Control Group (G1; solvant) containing 5 mice, received water at 5 mL/Kg at t-5 min and ^14C-proteins at 10 mL/Kg at T=0 min; • Group 2 (G2) containing 5 mice (OBE 5 mg/Kg), received OBE2001 at 5 mg/Kg at t-5 min and ^14C-proteins at 10 mL/Kg at T=0 min; • Group 3 (G3) containing […] (OBE 50 mg/Kg), received OBE2001 at 50 mg/Kg at t-5 min and ^14C-proteins at 10 mL/Kg at T=0 min.
A preparation containing 5 ml of Clinoleic 20 (Baxter Ref DDB9500) with 1 g of glucose (Sigma; ref:G8270) and 1 g of casein (Sigma; ref: C3400) was prepared. Water was added until the solution reached 10 ml. After concentration of the radioactive solution containing the ^14C proteins (GE Healthcare; ref: CFA626) (×10), 200 μl of this radioactive solution was added to 2.8 ml of the preparation, in order to reach a concentration of ca 3.3 μCi/ml. The animals were starved before administration of this radioactive preparation. The radioactive preparation was orally administered by intragastric gavage with a single dosing (ca 33.3 μCi/kg) in a volume of ca 10 ml/kg of body weight.
OBE2001 was provided in a mixture of two salts (HCl and TFA) with a 90% purity. OBE2001 was orally administered by intragastric gavage with a single dosing of 5 mg/Kg for G2 and 50 mg/Kg for G3 in a volume of ca 5 mL/kg body-weight.
Plasma aliquots were removed and placed into 6 ml pre-weighed plastic vials, at t+15, t+30, t+60, t+120 and t+240 min. About 4 ml Pico-fluor 40 was added and after shaking, the total radioactivity contained within the different samples was determined by liquid scintillation using a Packard 1900 CA spectrometer equipped with an external standard system (spectral analysis). A quenching curve for calibration purposes was set up using a ^14C quenched set supplied by Packard Instruments.
Liquid scintillation (LS) Counting was carried out with 2 sigma=2%, and for a maximum duration of 5 minutes (according to the method created in the 1900CA® software). Dpm (disintegration per minute) values of less than twice the background level of blank biological medium were reported as BLQ (Below the Limit of Quantitation).

Chain of Kallikrein (P03952 20-638): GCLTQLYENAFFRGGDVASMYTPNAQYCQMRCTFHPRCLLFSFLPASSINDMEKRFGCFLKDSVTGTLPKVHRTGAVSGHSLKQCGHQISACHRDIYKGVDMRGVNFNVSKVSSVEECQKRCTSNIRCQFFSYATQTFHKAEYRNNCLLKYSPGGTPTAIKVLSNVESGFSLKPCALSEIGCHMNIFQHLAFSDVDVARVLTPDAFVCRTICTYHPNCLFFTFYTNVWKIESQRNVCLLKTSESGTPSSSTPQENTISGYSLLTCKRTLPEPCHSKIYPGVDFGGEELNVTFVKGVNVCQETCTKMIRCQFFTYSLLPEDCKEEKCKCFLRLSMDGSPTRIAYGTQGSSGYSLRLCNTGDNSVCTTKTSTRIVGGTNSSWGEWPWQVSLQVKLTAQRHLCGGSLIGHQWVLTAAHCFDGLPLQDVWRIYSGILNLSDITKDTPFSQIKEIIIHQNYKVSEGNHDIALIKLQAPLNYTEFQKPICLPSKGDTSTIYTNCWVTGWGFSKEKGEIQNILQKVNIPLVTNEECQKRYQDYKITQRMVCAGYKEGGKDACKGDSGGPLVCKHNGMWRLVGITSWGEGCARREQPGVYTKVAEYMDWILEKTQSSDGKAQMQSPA

## CC(=O)N[C@@H](C)C(=O)N[C@@H](Cc1ccccc1)C(=O)N[C@@H](CCCNC(=N)N)B1OC2C[C@@H]3C[C@@H](C3(C)C)[C@]2(C)O1 (stereo partly drawn) [OBE2001]
Kallikrein
  IC50: 6.9 nM
[1]; Group 2, 25+25 mg/kg
  triglycerides, area under the curve: 48559
[1]; Group 3, 25 mg/kg
  triglycerides, area under the curve: 56273
[1]; 25 mg/kg, groups 2 and 3
  triglyceride absorption compared to the control group: decrease in triglyceride absorption
[1]; 60 min, Group 2, 25 mg/kg at t-5 min + 25 mg/kg at t0, oral gavage
  plasma triglycerides, % of basal value: 243.39 % of basal value
[1]; 60 min, Group 3, single 25 mg/kg in solution A at t0, oral gavage
  plasma triglycerides, % of basal value: 293.17 % of basal value
[1]; 120 min, Group 2, 25 mg/kg at t-5 min + 25 mg/kg at t0, oral gavage
  plasma triglycerides, % of basal value: 202.34 % of basal value
[1]; 120 min, Group 3, single 25 mg/kg in solution A at t0, oral gavage
  plasma triglycerides, % of basal value: 269.24 % of basal value
[1]; 180 min, Group 2, 25 mg/kg at t-5 min + 25 mg/kg at t0, oral gavage
  plasma triglycerides, % of basal value: 127.81 % of basal value
[1]; 180 min, Group 3, single 25 mg/kg in solution A at t0, oral gavage
  plasma triglycerides, % of basal value: 126.45 % of basal value
[1]; 300 min, Group 2, 25 mg/kg at t-5 min + 25 mg/kg at t0, oral gavage
  plasma triglycerides, % of basal value: 62.35 % of basal value
[1]; 300 min, Group 3, single 25 mg/kg in solution A at t0, oral gavage
  plasma triglycerides, % of basal value: 70.22 % of basal value
[1]; 360 min, Group 2, 25 mg/kg at t-5 min + 25 mg/kg at t0, oral gavage
  plasma triglycerides, % of basal value: 56.71 % of basal value
[1]; 360 min, Group 3, single 25 mg/kg in solution A at t0, oral gavage
  plasma triglycerides, % of basal value: 60.92 % of basal value
[1]; Group 2/group 1, 25+25 mg/kg, 25 mg/kg
  % of decrease of triglyceride area under the curve versus group 1: 26%
[1]; Group 3/group 1, 25 mg/kg
  % of decrease of triglyceride area under the curve versus group 1: 14%
[2]; 5 mg/kg oral at t-5 min
  Cmax of 14C-protein radioactivity in plasma: 0.58%±0.54 % of administered dose/g
[2]; 5 mg/kg
  AUC mean of 14C-protein radioactivity in plasma: 1.841±0.6402 % dose.h.g-1
  plateau concentration of 14C-protein radioactivity in plasma: 0.4 % administered dose/g
[2]; 50 mg/kg oral at t-5 min
  Cmax of 14C-protein radioactivity in plasma: 0.54%±0.24 % of administered dose/g
[2]; 50 mg/kg
  AUC mean of 14C-protein radioactivity in plasma: 1.718±0.4366 % dose.h.g-1
  plateau concentration of 14C-protein radioactivity in plasma: 0.4 % administered dose/g
[2]; first 30 minutes after protein administration, maintained at least 4 hours
  protein absorption compared to control mice: greatly decreased
[2]; single oral dose 5 or 50 mg/kg, male Swiss mice
  morbidity or mortality: no sign of morbidity or mortality occurred
